From patent US6573275B1, “Bicyclic amines” (Syngenta Limited, priority 1995, dated 2003) come the findings set out here.

For this data set, the system named is peach aphid (Myzus persicae). The experiment in a line: Insecticidal test against peach aphid, infested Chinese cabbage leaves sprayed. The class given is in vivo. Conditions: peach aphid (Myzus persicae) on Chinese cabbage leaves, sprayed with 500 ppm composition unless otherwise stated, mortality assessed after 3 days. Summed up: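 Aphid-infested Chinese cabbage leaves were sprayed with compound at 500 ppm unless otherwise stated, formulated in acetone/ethanol diluted with water containing 0.05% Synperonic NP8. Mortality was assessed after 3 days.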

`C=COC(=O)N1C2CCC1CC(C#N)(c1cncc(Cl)n1)C2` (stereo not shown) [Compound 298]: the “Score (grading of mortality)” value is recorded as “A (A indicates 80-100% mortality)”.
Take `N#CC1(c2cncc(Cl)n2)CC2CCC(C1)N2` (stereo not shown) [Compound 299]: the “Score (grading of mortality)” value is reported as “A (A indicates 80-100% mortality)”.
For `N#CC1(c2cncc(Cl)n2)CC2CCC(C1)N2Cc1cccc(Cl)c1` (stereo not shown) [Compound 300], the “Score (grading of mortality)” value is reported as “A (A indicates 80-100% mortality)”.
For `N#CCN1C2CCC1CC(C#N)(c1cncc(Cl)n1)C2` (stereo not shown) [Compound 301] the value was “A (A indicates 80-100% mortality)”.
Take `CC(c1cccc(Cl)c1)N1C2CCC1CC(C#N)(c1cncc(Cl)c1)C2` (stereo not shown) [Compound 302]: the “Score (grading of mortality)” value is “A (A indicates 80-100% mortality)”.
Next, `CN1C2CCC1CC(C#N)(c1cncc(C#N)c1)C2` (stereo not shown) [Compound 304]: “A (A indicates 80-100% mortality)”; `C=COC(=O)N1C2CCC1CC(C#N)(c1cncc(I)c1)C2` (stereo not drawn) [Compound 309, exo-3-(5-iodopyrid-3-yl)-endo-3-cyano-8-(vinyloxycarbonyl)-8-azabicyclo[3.2.1]octane]: “A (A indicates 80-100% mortality)”.
